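Abbreviation: GI50, concentration required for 50% inhibition of growth. TGI is the concentration that stops growth completely.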
Legend:
Experiment in all cases: DTP human tumour cell line panel, 384-well format
786-0 renal = tested on: 786-0 renal
A498 renal = tested on: A498 renal
A549 NSCLC = tested on: A549 NSCLC
ACHN renal = tested on: ACHN renal
BT-549 breast = tested on: BT-549 breast
CAKI-1 renal = tested on: CAKI-1 renal
CCRF-CEM leukemia = tested on: CCRF-CEM leukemia
COLO 205 colon = tested on: COLO 205 colon
DU-145 prostate = tested on: DU-145 prostate
EKVX NSCLC = tested on: EKVX NSCLC
HCC-2998 colon = tested on: HCC-2998 colon
HCT-116 colon = tested on: HCT-116 colon
HCT-15 colon = tested on: HCT-15 colon
HL-60(TB) leukemia = tested on: HL-60(TB) leukemia
HOP-62 NSCLC = tested on: HOP-62 NSCLC
HOP-92 NSCLC = tested on: HOP-92 NSCLC
HS 578T breast = tested on: HS 578T breast
HT29 colon = tested on: HT29 colon
IGROV1 ovarian = tested on: IGROV1 ovarian
K-562 leukemia = tested on: K-562 leukemia
KM12 colon = tested on: KM12 colon
LOX IMVI melanoma = tested on: LOX IMVI melanoma
M14 melanoma = tested on: M14 melanoma
MALME-3M melanoma = tested on: MALME-3M melanoma
MCF7 breast = tested on: MCF7 breast
MDA-MB-435 melanoma = tested on: MDA-MB-435 melanoma
MDA-MB-468 breast = tested on: MDA-MB-468 breast
MOLT-4 leukemia = tested on: MOLT-4 leukemia
NCI-H226 lung = tested on: NCI-H226 lung
NCI-H23 lung = tested on: NCI-H23 lung
NCI-H322M lung = tested on: NCI-H322M lung
NCI-H460 NSCLC = tested on: NCI-H460 NSCLC
NCI-H522 lung = tested on: NCI-H522 lung
NCI/ADR-RES ovarian = tested on: NCI/ADR-RES ovarian
OVCAR-3 ovarian = tested on: OVCAR-3 ovarian
OVCAR-4 ovarian = tested on: OVCAR-4 ovarian
OVCAR-8 ovarian = tested on: OVCAR-8 ovarian
PC-3 prostate = tested on: PC-3 prostate
RPMI-8226 leukemia = tested on: RPMI-8226 leukemia
RXF 393 renal = tested on: RXF 393 renal
SF-268 CNS = tested on: SF-268 CNS
SF-295 CNS = tested on: SF-295 CNS
SF-539 CNS = tested on: SF-539 CNS
SK-MEL-2 melanoma = tested on: SK-MEL-2 melanoma
SK-MEL-28 melanoma = tested on: SK-MEL-28 melanoma
SK-MEL-5 melanoma = tested on: SK-MEL-5 melanoma
SK-OV-3 ovarian = tested on: SK-OV-3 ovarian
SN12C renal = tested on: SN12C renal
SNB-19 CNS = tested on: SNB-19 CNS
SNB-75 CNS = tested on: SNB-75 CNS
SW-620 colon = tested on: SW-620 colon
TK-10 renal = tested on: TK-10 renal
U251 glioblastoma = tested on: U251 glioblastoma
UACC-257 melanoma = tested on: UACC-257 melanoma
UACC-62 melanoma = tested on: UACC-62 melanoma

CC(C)NC(=O)OCc1c(COC(=O)NC(C)C)c(-c2ccc(Cl)c(Cl)c2)n2c1SCC2
GI50 ([…]-0 renal): 4.31 µM
TGI (786-0 renal): 15.8 µM
GI50 (A498 renal): 0.386 µM
TGI (A498 renal): 1.76 µM
GI50 (A549 NSCLC): 10.2 µM
TGI (A549 NSCLC): 23.9 µM
GI50 (ACHN renal): 2.31 µM
TGI (ACHN renal): 7.85 µM
GI50 (BT-549 breast): 3.92 µM
TGI (BT-549 breast): 15.3 µM
GI50 (CAKI-1 renal): 1.48 µM
TGI (CAKI-1 renal): 3.44 µM
GI50 (CCRF-CEM leukemia): 2.07 µM
TGI (CCRF-CEM leukemia): 4.95 µM
GI50 (COLO 205 colon): 8.39 µM
TGI (COLO 205 colon): 21.7 µM
GI50 (DU-145 prostate): 5.54 µM
TGI (DU-145 prostate): 20.7 µM
GI50 (EKVX NSCLC): 13.1 µM
TGI (EKVX NSCLC): 26.7 µM
GI50 (HCC-2998 colon): 0.687 µM
TGI (HCC-2998 colon): 14.7 µM
GI50 (HCT-116 colon): 4 µM
TGI (HCT-116 colon): 19.8 µM
GI50 (HCT-15 colon): 5.97 µM
TGI (HCT-15 colon): 19.8 µM
GI50 (HL-60(TB) leukemia): 1.27 µM
TGI (HL-60(TB) leukemia): 2.58 µM
GI50 (HOP-62 NSCLC): 1.89 µM
TGI (HOP-62 NSCLC): 4.66 µM
GI50 (HOP-92 NSCLC): 2.58 µM
TGI (HOP-92 NSCLC): 11.4 µM
GI50 (HS 578T breast): 4.85 µM
TGI (HS 578T breast): 17.3 µM
GI50 (HT29 colon): 10.4 µM
TGI (HT29 colon): 25 µM
GI50 (IGROV1 ovarian): 1.25 µM
TGI (IGROV1 ovarian): 4.55 µM
GI50 (K-562 leukemia): 10.3 µM
TGI (K-562 leukemia): 22.6 µM
GI50 (KM12 colon): 7.21 µM
TGI (KM12 colon): 21.6 µM
GI50 (LOX IMVI melanoma): 1.84 µM
TGI (LOX IMVI melanoma): 13.6 µM
GI50 (M14 melanoma): 3.75 µM
TGI (M14 melanoma): 14.1 µM
GI50 (MALME-3M melanoma): 5.06 µM
TGI (MALME-3M melanoma): 17.8 µM
GI50 (MCF7 breast): 4.21 µM
TGI (MCF7 breast): 27 µM
GI50 (MDA-MB-435 melanoma): 13 µM
TGI (MDA-MB-435 melanoma): 25.8 µM
GI50 (MDA-MB-468 breast): 0.0344 µM
TGI (MDA-MB-468 breast): 0.936 µM
GI50 (MOLT-4 leukemia): 1.1 µM
TGI (MOLT-4 leukemia): 2.3 µM
GI50 (NCI-H226 lung): 0.85 µM
TGI (NCI-H226 lung): 2.35 µM
GI50 (NCI-H23 lung): 1.83 µM
TGI (NCI-H23 lung): 4.26 µM
GI50 (NCI-H322M lung): 7.6 µM
TGI (NCI-H322M lung): 21.7 µM
GI50 (NCI-H460 NSCLC): 2.56 µM
TGI (NCI-H460 NSCLC): 11.4 µM
GI50 (NCI-H522 lung): 2.09 µM
TGI (NCI-H522 lung): 13.8 µM
GI50 (NCI/ADR-RES ovarian): 3 µM
TGI (NCI/ADR-RES ovarian): 13.2 µM
GI50 (OVCAR-3 ovarian): 2.99 µM
TGI (OVCAR-3 ovarian): 14.1 µM
GI50 (OVCAR-4 ovarian): 3.3 µM
TGI (OVCAR-4 ovarian): 17.5 µM
GI50 (OVCAR-8 ovarian): 5.97 µM
TGI (OVCAR-8 ovarian): 19.1 µM
GI50 (PC-3 prostate): 10.8 µM
TGI (PC-3 prostate): 25.5 µM
GI50 (RPMI-8226 leukemia): 1.79 µM
TGI (RPMI-8226 leukemia): 5.03 µM
GI50 (RXF 393 renal): 2.64 µM
TGI (RXF 393 renal): 10.5 µM
GI50 (SF-268 CNS): 3.18 µM
TGI (SF-268 CNS): 10.3 µM
GI50 (SF-295 CNS): 3.18 µM
TGI (SF-295 CNS): 10.1 µM
GI50 (SF-539 CNS): 5.16 µM
TGI (SF-539 CNS): 18.7 µM
GI50 (SK-MEL-2 melanoma): 1.83 µM
TGI (SK-MEL-2 melanoma): 4.49 µM
GI50 (SK-MEL-28 melanoma): 12.7 µM
TGI (SK-MEL-28 melanoma): 26.1 µM
GI50 (SK-MEL-5 melanoma): 4.33 µM
TGI (SK-MEL-5 melanoma): 17.8 µM
GI50 (SK-OV-3 ovarian): 3.26 µM
TGI (SK-OV-3 ovarian): 11.4 µM
GI50 (SN12C renal): 3.88 µM
TGI (SN12C renal): 14.1 µM
GI50 (SNB-19 CNS): 9.07 µM
TGI (SNB-19 CNS): 27.7 µM
GI50 (SNB-75 CNS): 2.27 µM
TGI (SNB-75 CNS): 12.7 µM
GI50 (SW-620 colon): 5.81 µM
TGI (SW-620 colon): 19.6 µM
GI50 (TK-10 renal): 1.63 µM
TGI (TK-10 renal): 6.15 µM
GI50 (U251 glioblastoma): 5.16 µM
TGI (U251 glioblastoma): 18.4 µM
GI50 (UACC-257 melanoma): 10.2 µM
TGI (UACC-257 melanoma): 22.4 µM
GI50 (UACC-62 melanoma): 1.68 µM
TGI (UACC-62 melanoma): 4.98 µM
